Literature values in Sander's compilation of Henry's law constants (doi:10.1039/f19888401985).

Test: Henry solubility constant Hcp at 298.15 K (mol/(m3 Pa))
Details: reference: Abraham and Matteoli (1988); cited value

| Henry solubility constant Hcp | SMILES |
| --- | --- |
| 1.4e-05 | [Ar] [argon] |
| 1.3e-05 | CCCC [butane] |
| 3.8e-06 | [He] [helium] |
| 4.4e-06 | CCCCCCC [heptane] |
| 6.1e-06 | CCCCCC [hexane] |
| 2.5e-05 | [Kr] [krypton] |
| 4.4e-06 | [Ne] [neon] |
| 3.1e-06 | CCCCCCCC [octane] |
| 8e-06 | CCCCC [pentane] |
| 9.1e-05 | [Rn] [radon] |
| 4.3e-05 | [Xe] [xenon] |
